# Laboratory results as given in article PMC10341549, “Inhibitory Investigations of Acyl-CoA Derivatives against Human Lipoxygenase Isozymes” (International Journal of Molecular Sciences, 2023).
# Molecular target: T1, h5-LOX (Homo sapiens, UniProt P09917, C241A/C562A/D45S/DEL41-43/F15H/K654E/K655N/K656L/L77S/N44G/W14E/W76G)
# T1 sequence (P09917 with tags, fused parts or gaps W14E/F15H/DEL41-43/N44G/D45S/W76G/L77S/C241A/C562A/K654E/K655N/K656L): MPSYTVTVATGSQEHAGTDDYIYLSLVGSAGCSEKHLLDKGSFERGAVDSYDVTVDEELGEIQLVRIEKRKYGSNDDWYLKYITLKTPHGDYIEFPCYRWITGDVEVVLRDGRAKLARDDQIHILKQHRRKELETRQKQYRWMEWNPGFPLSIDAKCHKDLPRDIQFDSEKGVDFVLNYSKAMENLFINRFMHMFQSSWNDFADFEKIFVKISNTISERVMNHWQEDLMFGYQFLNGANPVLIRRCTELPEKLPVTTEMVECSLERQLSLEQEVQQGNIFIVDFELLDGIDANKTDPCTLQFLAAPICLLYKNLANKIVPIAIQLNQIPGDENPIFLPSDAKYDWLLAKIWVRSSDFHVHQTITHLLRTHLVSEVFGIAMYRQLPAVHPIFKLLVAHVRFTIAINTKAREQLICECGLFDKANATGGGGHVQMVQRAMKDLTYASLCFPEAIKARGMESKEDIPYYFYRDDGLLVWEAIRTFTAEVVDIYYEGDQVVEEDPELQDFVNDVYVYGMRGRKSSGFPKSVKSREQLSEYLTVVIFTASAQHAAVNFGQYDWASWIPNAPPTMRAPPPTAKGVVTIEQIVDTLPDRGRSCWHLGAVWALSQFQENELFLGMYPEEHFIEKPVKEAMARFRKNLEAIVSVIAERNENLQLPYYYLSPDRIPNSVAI
# Experiment: IC50 determination against h5-LOX
# Type: biochemical
# Conditions: 10 μM AA, 50 mM HEPES pH 7.5, 200 µM ATP, ammonium-sulfate precipitate enzyme, 22 °C
# Protocol: Overexpression and purification of his-tagged wild-type h12-LOX (Uniprot entry P18054), h15-LOX-1 (Uniprot entry P16050), and h15-LOX-2 (Uniprot entry O15296) were performed using nickel-affinity chromatography. The purity of h12-LOX, h15-LOX-1, and h15-LOX-2 was assessed using SDS gel as greater than 85%, and metal content was assessed with a Finnigan inductively coupled plasma mass spectrometer (ICP-MS, Thermo Fischer Scientific, San Jose, USA) via comparison with iron standard solution. Cobalt-EDTA was used as an internal standard. WT h5-LOX (UniProt entry P09917) was expressed in Rosetta 2 cells (Novagen) transformed with the pET14b-Stable-5-LOX plasmid (a gift from Marcia Newcomer of Louisiana State University) and grown in Terrific Broth containing 34 μg/mL chloramphenicol and 100 μg/mL ampicillin at 37 °C for 3.5 h, then placed at 20 °C for an additional 26 h. Cells were pelleted and resuspended in 50 mM Tris (pH 8.0), 500 mM NaCl, 20 mM imidazole with 1 μM pepstatin, 100 μM PMSF, and DNaseI (Sigma, Kanagawa, Japan). The cells were lysed in a French pressure cell and centrifuged at 40,000× g for 20 min at 4 °C. Saturated ammonium sulfate was added to achieve a final solution of 10% and inverted several times. The lysate was centrifuged at 40,000× g for 10 min at 4 °C. The pellet was discarded, and the supernatant was increased to a final concentration of 50% ammonium sulfate. The supernatant was rotated for 10 min at 4 °C then centrifuged at 40,000× g for 10 min at 4 °C. The pellet was split into 150 mg aliquots. The WT h5-LOX used for the kinetics in this work was not purified due to a dramatic loss in activity and was therefore prepared as an ammonium-sulfate precipitate.
# IC50 values for each acyl-CoA were measured against h5-LOX, h12-LOX, h15-LOX-1, and h15-LOX-2. […] The fastest rates over 15 s intervals were recorded. […]
row,IC50 [µM],SMILES
1,> 200,"CC/C=C\C/C=C\C/C=C\C/C=C\C/C=C\C/C=C\CCC(=O)SCCNC(=O)CCNC(=O)C(O)C(C)(C)COP(=O)(O)OP(=O)(O)OC[C@H]1O[C@@H](n2cnc3c(N)ncnc32)[C@H](O)[C@@H]1OP(=O)(O)O (stereo partly drawn) [Docosahexaenoyl CoA (22:6), docosahexaenoyl-coenzyme A (22:6)]"
2,> 50,"CCCCC/C=C\C/C=C\CCCCCCCC(=O)SCCNC(=O)CCNC(=O)[C@H](O)C(C)(C)COP(=O)(O)OP(=O)(O)OC[C@H]1O[C@@H](n2cnc3c(N)ncnc32)[C@H](O)[C@@H]1OP(=O)(O)O [Linoleoyl-CoA (18:2), linoleoyl-CoA]"
3,> 200,"CCCCC/C=C\C/C=C\C/C=C\CCCCC(=O)SCCNC(=O)CCNC(=O)[C@H](O)C(C)(C)COP(=O)(O)OP(=O)(O)OC[C@H]1O[C@@H](n2cnc3c(N)ncnc32)[C@H](O)[C@@H]1OP(=O)(O)O [ɣ-Linolenoyl-CoA (18:3), ɣ-linolenoyl-coenzyme A (18:3)]"
